Experimental data taken from patent US8703797B2, “Condensed ring pyridine compounds as subtype-selective modulators of sphingosine-1-phosphate-2 (S1P2) receptors” (Allergan, Inc., priority 2009, dated 2014).

Legend:
[1] = biological target: T1, S1P1 (Homo sapiens, UniProt P21453); assay: FLIPR calcium assay, cells expressing S1P1 and a G-protein; format: cell-based
T1 construct: expressed in transfected cells
Protocol: (§1) After removal of excess dye by washing, the cells are placed in the FLIPR TETRA instrument. Baseline fluorescence readings are taken prior to addition the compound to be tested. Agonists will trigger the receptor to interact with the G-protein, leading to an increase in intracellular calcium. The increase in intracellular calcium causes an increase in the fluorescence of the cells, due to the presence of fluo-4. This fluorescence increase is recorded by the FLIPR TETRA. After the calcium transient signal has decreased towards baseline, the standard agonist sphingosine 1-phosphate is added. If the test compound is an antagonist, an initial calcium signal will not be generated and the antagonist will prevent the generation of a calcium signal from sphingosine 1-phosphate.

[2] = biological target: T2, S1P3 (Homo sapiens, UniProt Q99500); assay: FLIPR calcium assay, cells expressing S1P3 and a G-protein; format: cell-based
T2 construct: expressed in transfected cells
T2 sequence (Q99500 whole entry, species assumed): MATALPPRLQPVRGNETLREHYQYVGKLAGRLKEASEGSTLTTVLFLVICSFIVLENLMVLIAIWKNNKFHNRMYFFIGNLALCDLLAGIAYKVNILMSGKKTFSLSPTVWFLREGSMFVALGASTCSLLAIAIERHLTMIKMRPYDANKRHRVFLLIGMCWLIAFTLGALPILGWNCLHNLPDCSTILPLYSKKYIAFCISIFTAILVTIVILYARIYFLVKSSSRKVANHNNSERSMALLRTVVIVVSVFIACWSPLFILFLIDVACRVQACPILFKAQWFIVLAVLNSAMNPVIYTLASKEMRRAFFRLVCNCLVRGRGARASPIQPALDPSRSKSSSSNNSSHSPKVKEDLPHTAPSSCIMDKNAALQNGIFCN
Protocol: as §1

[3] = biological target: T3, S1P2 (Homo sapiens, UniProt O95136); assay: S1P2 values marked (33P S1P); format: binding; details: value marked (33P S1P)
T3 sequence (O95136 whole entry, species assumed): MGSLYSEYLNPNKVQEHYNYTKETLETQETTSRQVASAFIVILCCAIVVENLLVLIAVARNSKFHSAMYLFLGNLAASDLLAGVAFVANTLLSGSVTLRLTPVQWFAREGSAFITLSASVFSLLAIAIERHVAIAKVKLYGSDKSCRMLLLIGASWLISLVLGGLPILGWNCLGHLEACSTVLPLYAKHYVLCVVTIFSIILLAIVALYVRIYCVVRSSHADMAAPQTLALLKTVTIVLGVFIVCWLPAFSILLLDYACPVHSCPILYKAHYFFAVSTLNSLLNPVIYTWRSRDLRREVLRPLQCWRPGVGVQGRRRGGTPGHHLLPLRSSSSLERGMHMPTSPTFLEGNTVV

[4] = biological target: T3, S1P2; assay: FLIPR calcium assay, cells expressing S1P2 and a G-protein; format: cell-based; details: for FLIPR (% Antagonism) S1P2: antagonism versus sphingosine 1-phosphate
Protocol: as §1

T1 sequence (P21453 whole entry, species assumed): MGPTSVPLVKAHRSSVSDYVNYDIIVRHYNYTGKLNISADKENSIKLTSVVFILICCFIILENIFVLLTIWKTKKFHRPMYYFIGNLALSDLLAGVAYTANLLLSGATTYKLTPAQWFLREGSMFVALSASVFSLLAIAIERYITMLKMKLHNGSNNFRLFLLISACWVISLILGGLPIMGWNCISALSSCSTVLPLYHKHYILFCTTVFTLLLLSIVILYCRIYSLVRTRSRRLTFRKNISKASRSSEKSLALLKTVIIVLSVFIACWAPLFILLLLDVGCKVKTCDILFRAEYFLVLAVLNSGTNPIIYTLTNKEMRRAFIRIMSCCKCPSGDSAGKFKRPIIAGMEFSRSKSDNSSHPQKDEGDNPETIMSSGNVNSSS

| EC50 [1] [nM] | EC50 [2] [nM] | EC50 [3] [nM] | EC50 [4] [nM] | FLIPR (% Antagonism) S1P2 [4] | Molecule |
| --- | --- | --- | --- | --- | --- |
| > 8300 | > 8300 | 2.9 | 47 | (96) % | Cc1nn(C)c2c(C(C)C)cc(NNC(=O)Nc3cc(Cl)cc(Cl)c3)nc12 [Example 1, N-(3,5-dichlorophenyl)-2-(7-isopropyl-1,3-dimethyl-1H-pyrazolo[4,3-b]pyridin-5-yl)hydrazinecarboxamide] |
| > 8300 | > 8300 | 23.8 | 118 | (91) % | Cc1nn(C)c2c(C(C)C)cc(CNC(=O)Nc3cc(Cl)nc(Cl)c3)nc12 [Example 2, 1-(2,6-dichloropyridin-4-yl)-3-((7-isopropyl-1,3-dimethyl-1H-pyrazolo[4,3-b]pyridin-5-yl)methyl)urea] |
| > 8300 | > 8300 | 1.5 | – | – | CCOc1cc(NC(=O)NNc2cc(C(C)C)c3c(n2)c(C)nn3C)cc(Cl)n1 [Example 4, N-(2-chloro-6-ethoxypyridin-4-yl)-2-(7-isopropyl-1,3-dimethyl-1H-pyrazolo[4,3-b]pyridin-5-yl)hydrazinecarboxamide] |
| > 8300 | > 8300 | – | 196 | (98) % | Cc1nn(C)c2c(C(C)C)cc(NNC(=O)Nc3cc(C(F)(F)F)cc(C(F)(F)F)c3)nc12 [Example 7, N-(3,5-bis(trifluoromethyl)phenyl)-2-(7-isopropyl-1,3-dimethyl-1H-pyrazolo[4,3-b]pyridin-5-yl)hydrazinecarboxamide] |
| > 8300 | > 8300 | 9.9 | 58 | (98) % | COc1cc(NC(=O)NCc2cc(C(C)C)c3c(n2)c(C)nn3C)cc(Cl)n1 [Example 10, 1-(2-chloro-6-methoxypyridin-4-yl)-3-((7-isopropyl-1,3-dimethyl-1H-pyrazolo[4,3-b]pyridin-5-yl)methyl)urea] |
| > 8300 | > 8300 | 5 | 9 | (98) % | CCCc1cc(NC(=O)NNc2cc(C(C)C)c3c(n2)c(C)nn3C)cc(Cl)n1 [Example 11, N-(2-chloro-6-propylpyridin-4-yl)-2-(7-isopropyl-1,3-dimethyl-1H-pyrazolo[4,3-b]pyridin-5-yl)hydrazinecarboxamide] |
| > 8300 | > 8300 | 266 | – | – | CCOc1cc(NC(=O)NNc2cc(C(C)C)c3c(n2)c(C)nn3C)ccn1 [Example 18, N-(2-ethoxypyridin-4-yl)-2-(7-isopropyl-1,3-dimethyl-1H-pyrazolo[4,3-b]pyridin-5-yl)hydrazinecarboxamide] |
| > 8300 | > 8300 | 196 | – | – | Cc1cc(NNC(=O)Nc2cc(Cl)cc(Cl)c2)nc2ncccc12 [Example 20, N-(3,5-dichlorophenyl)-2-(4-methyl-1,8-naphthyridin-2-yl)hydrazinecarboxamide] |
| > 8300 | > 8300 | 199 | – | – | Cc1ccc(C)c2c(C(C)C)cc(NNC(=O)Nc3cc(Cl)cc(Cl)c3)nc12 [Example 22, N-(3,5-dichlorophenyl)-2-(4-isopropyl-5,8-dimethylquinolin-2-yl)hydrazinecarboxamide] |
| > 8300 | > 8300 | 390 | – | – | Cc1cc(NNC(=O)Nc2cc(Cl)nc(Cl)c2)nc2c(C)cccc12 [Example 24, N-(2,6-dichloropyridin-4-yl)-2-(4,8-dimethylquinolin-2-yl)hydrazinecarboxamide] |
| > 8300 | > 8300 | 451 | – | – | Cc1cc(NNC(=O)Nc2cc(Cl)cc(Cl)c2)nc2c(C)cccc12 [Example 25, N-(3,5-dichlorophenyl)-2-(4,8-dimethylquinolin-2-yl)hydrazinecarboxamide] |
| > 8300 | > 8300 | 196 | – | – | Cc1cc(NNC(=O)Nc2cc(Cl)nc(Cl)c2)nc2ccccc12 [Example 26, N-(2,6-dichloropyridin-4-yl)-2-(4-methylquinolin-2-yl)hydrazinecarboxamide] |

The remaining lines, values behind:

| Molecule | EC50 [1] [nM] | EC50 [2] [nM] | EC50 [3] [nM] | EC50 [4] [nM] | FLIPR (% Antagonism) S1P2 [4] |
| --- | --- | --- | --- | --- | --- |
| 1-(2-chloro-6-propoxypyridin-4-yl)-3-((7-isopropyl-1,3-dimethyl-1H-pyrazolo[4,3-b]pyridin-5-yl)methyl)urea [Example 14] | > 8300 | > 8300 | 0.5 | – | – |
| CCCCc1cc(NC(=O)NNc2cc(C(C)C)c3c(n2)c(C)nn3C)cc(Cl)n1 [Example 3, N-(2-butyl-6-chloropyridin-4-yl)-2-(7-isopropyl-1,3-dimethyl-1H-pyrazolo[4,3-b]pyridin-5-yl)hydrazinecarboxamide] | > 8300 | > 8300 | 5.7 | 8 | (99) % |
| Cc1nn(C)c2c(C)cc(CNC(=O)Nc3cc(Cl)cc(Cl)c3)nc12 [Example 5, 1-(3,5-dichlorophenyl)-3-((1,3,7-trimethyl-1H-pyrazolo[4,3-b]pyridin-5-yl)methyl)urea] | > 8300 | > 8300 | – | 135 | (82) % |
| Cc1nn(C)c2c(C(C)C)cc(NNC(=O)Nc3cc(Cl)nc(Cl)c3)nc12 [Example 6, N-(2,6-dichloropyridin-4-yl)-2-(7-isopropyl-1,3-dimethyl-1H-pyrazolo[4,3-b]pyridin-5-yl)hydrazinecarboxamide] | > 8300 | > 8300 | 2.2 | 11 | (95) % |
| Cc1nn(C)c2c(C(C)C)cc(CNC(=O)Nc3cc(Cl)cc(Cl)c3)nc12 [Example 9] | > 8300 | > 8300 | 26.4 | 149 | (52) % |
| CCCc1cc(NC(=O)NCc2cc(C(C)C)c3c(n2)c(C)nn3C)cc(Cl)n1 [Example 12, 1-(2-chloro-6-propylpyridin-4-yl)-3-((7-isopropyl-1,3-dimethyl-1H-pyrazolo[4,3-b]pyridin-5-yl)methyl)urea] | > 8300 | > 8300 | 2.1 | 24 | (99) % |
| CCOc1cc(NC(=O)NCc2cc(C(C)C)c3c(n2)c(C)nn3C)cc(Cl)n1 [Example 13, 1-(2-chloro-6-ethoxypyridin-4-yl)-3-((7-isopropyl-1,3-dimethyl-1H-pyrazolo[4,3-b]pyridin-5-yl)methyl)urea] | > 8300 | > 8300 | 0.5 | – | – |
| CCCOc1cc(NC(=O)NNc2cc(C(C)C)c3c(n2)c(C)nn3C)cc(Cl)n1 [Example 15, N-(2-chloro-6-propoxypyridin-4-yl)-2-(7-isopropyl-1,3-dimethyl-1H-pyrazolo[4,3-b]pyridin-5-yl)hydrazinecarboxamide] | > 8300 | > 8300 | 0.2 | – | – |
| CCCCOc1cc(NC(=O)NNc2cc(C(C)C)c3c(n2)c(C)nn3C)cc(Cl)n1 [Example 16, N-(2-butoxy-6-chloropyridin-4-yl)-2-(7-isopropyl-1,3-dimethyl-1H-pyrazolo[4,3-b]pyridin-5-yl)hydrazinecarboxamide] | > 8300 | > 8300 | 0.1 | – | – |
| CCCCOc1cc(NC(=O)NCc2cc(C(C)C)c3c(n2)c(C)nn3C)cc(Cl)n1 [Example 17, 1-(2-butoxy-6-chloropyridin-4-yl)-3-((7-isopropyl-1,3-dimethyl-1H-pyrazolo[4,3-b]pyridin-5-yl)methyl)urea] | > 8300 | > 8300 | 0.1 | – | – |
| COc1cc(OC)c(NC(=O)NNc2cc(C(C)C)c3c(n2)c(C)nn3C)cc1Cl [Example 19, N-(5-chloro-2,4-dimethoxyphenyl)-2-(7-isopropyl-1,3-dimethyl-1H-pyrazolo[4,3-b]pyridin-5-yl)hydrazinecarboxamide] | > 8300 | > 8300 | 40 | – | – |
| CC(C)c1cc(NNC(=O)Nc2cc(Cl)cc(Cl)c2)nc2ncccc12 [Example 21, N-(3,5-dichlorophenyl)-2-(4-isopropyl-1,8-naphthyridin-2-yl)hydrazinecarboxamide] | > 8300 | > 8300 | 81 | – | – |
| CC(C)c1cc(NNC(=O)Nc2cc(Cl)cc(Cl)c2)nc2ccccc12 [Example 23, N-(3,5-dichlorophenyl)-2-(4-isopropylquinolin-2-yl)hydrazinecarboxamide] | > 8300 | > 8300 | 188 | – | – |
| Cc1ccc(C)c2c(C)cc(NNC(=O)Nc3cc(Cl)cc(Cl)c3)nc12 [Example 27, N-(3,5-dichlorophenyl)-2-(4,5,8-trimethylquinolin-2-yl)hydrazinecarboxamide] | > 8300 | > 8300 | 386 | – | – |
